This note sets out measurements from ChEMBL document CHEMBL2073923, “Reversal of anticancer drug resistance by macrolide antibiotics in vitro and in vivo” (Clin Exp Pharmacol Physiol, 2000).

The structures appear in SMILES notation.

Format in all cases: functional, cell-based
Series [1] concerns the target T1, ATP-dependent translocase ABCB1 (Mus musculus, UniProt P21447). Kind of series: TP_TRANSPORTER: inhibition of Vinblastine efflux (Vinblastine: 0.002 uM, YM17K: 100 uM) in P388/S and P388/ADR cells.
Series [2] deals with T1, ATP-dependent translocase ABCB1. Nature of the series: TP_TRANSPORTER: inhibition of Cyclosporin A efflux (CsA: 0.005 uM, YM17K: 100 uM) in P388/S and P388/ADR cells.
Series [3] shares this target. Kind of series: TP_TRANSPORTER: inhibition of Vinblastine efflux (Vinblastine: 0.002 uM, Clarithromycin: 100 uM) in P388/S and P388/ADR cells.
Series [4] has the same target. Nature of the series: TP_TRANSPORTER: inhibition of Cyclosporin A efflux (CsA: 0.005 uM, Clarithromycin: 100 uM) in P388/S and P388/ADR cells.
The target is the same in series [5]. Kind of series: TP_TRANSPORTER: inhibition of Vinblastine efflux (Vinblastine: 0.002 uM, Josamycin: 100 uM) in P388/S and P388/ADR cells.
The target is the same in series [6]. Nature of the series: TP_TRANSPORTER: inhibition of Cyclosporin A efflux (CsA: 0.005 uM, Josamycin: 100 uM) in P388/S and P388/ADR cells.
The target is the same in series [7]. Nature of the series: TP_TRANSPORTER: inhibition of Vinblastine efflux (Vinblastine: 0.002 uM, FK-506: 10 uM) in P388/S and P388/ADR cells.
Series [8] shares this target. Nature of the series: TP_TRANSPORTER: intracellular accumulation in P388/S and P388/ADR cells.

T1 sequence (P21447 whole entry): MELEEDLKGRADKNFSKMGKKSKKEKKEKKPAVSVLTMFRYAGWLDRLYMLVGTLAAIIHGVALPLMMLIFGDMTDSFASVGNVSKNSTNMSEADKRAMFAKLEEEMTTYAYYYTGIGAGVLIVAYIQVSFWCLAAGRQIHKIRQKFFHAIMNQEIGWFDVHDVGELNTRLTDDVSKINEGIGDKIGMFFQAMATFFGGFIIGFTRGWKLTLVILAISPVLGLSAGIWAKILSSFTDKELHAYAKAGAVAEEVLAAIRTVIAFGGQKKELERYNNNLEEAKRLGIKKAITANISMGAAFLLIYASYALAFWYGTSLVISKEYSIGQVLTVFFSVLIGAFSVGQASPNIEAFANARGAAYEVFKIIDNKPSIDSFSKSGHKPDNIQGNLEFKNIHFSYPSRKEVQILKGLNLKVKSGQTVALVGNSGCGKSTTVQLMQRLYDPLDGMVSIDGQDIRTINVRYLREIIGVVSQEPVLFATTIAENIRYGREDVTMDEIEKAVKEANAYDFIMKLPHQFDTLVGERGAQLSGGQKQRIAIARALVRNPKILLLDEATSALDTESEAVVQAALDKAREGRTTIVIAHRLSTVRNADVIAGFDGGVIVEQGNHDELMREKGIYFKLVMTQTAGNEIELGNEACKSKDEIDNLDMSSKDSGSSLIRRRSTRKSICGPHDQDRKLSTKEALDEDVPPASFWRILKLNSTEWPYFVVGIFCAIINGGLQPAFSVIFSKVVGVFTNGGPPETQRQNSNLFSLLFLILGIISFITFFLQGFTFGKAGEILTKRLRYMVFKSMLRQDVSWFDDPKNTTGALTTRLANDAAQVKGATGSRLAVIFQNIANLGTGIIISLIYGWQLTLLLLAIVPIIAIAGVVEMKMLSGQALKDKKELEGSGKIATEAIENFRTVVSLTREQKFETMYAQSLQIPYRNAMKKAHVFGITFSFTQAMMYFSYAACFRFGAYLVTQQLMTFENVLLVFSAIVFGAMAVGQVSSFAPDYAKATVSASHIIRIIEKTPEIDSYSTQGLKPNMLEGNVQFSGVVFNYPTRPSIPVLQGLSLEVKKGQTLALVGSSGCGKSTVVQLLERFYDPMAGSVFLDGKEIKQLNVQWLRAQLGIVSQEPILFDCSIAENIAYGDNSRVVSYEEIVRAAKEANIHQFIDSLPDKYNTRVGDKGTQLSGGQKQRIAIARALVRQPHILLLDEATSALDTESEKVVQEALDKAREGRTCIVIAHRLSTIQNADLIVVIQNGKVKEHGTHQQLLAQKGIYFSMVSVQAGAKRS

For the molecule `CC[C@H]1OC(=O)CC[C@H](C)C(O[C@@H]2O[C@H](C)C[C@H](N(C)C)[C@H]2O)[C@@H](CC=O)C[C@@H](C)C(=O)/C=C/C(C)=C/[C@@H]1CO` (stereo partly drawn), the Activity result was “inhibitor [(at a rough estimate) 200 % of control]” in series [1] and “inhibitor [(at a rough estimate) 710 % of control]” in series [2].
`CC[C@H]1OC(=O)[C@H](C)[C@@H](O[C@H]2C[C@@](C)(OC)[C@@H](O)[C@H](C)O2)[C@H](C)[C@@H](O[C@@H]2O[C@H](C)C[C@H](N(C)C)[C@H]2O)[C@](C)(OC)C[C@@H](C)C(=O)[C@H](C)[C@@H](O)[C@]1(C)O` [CLARITHROMYCIN]: the Activity result in series [3] was “inhibitor [(at a rough estimate) 250 % of control]”; in series [4] it was “inhibitor [(at a rough estimate) 820 % of control]”.
With `CO[C@@H]1[C@@H](O[C@@H]2O[C@H](C)[C@@H](O[C@H]3C[C@@](C)(O)[C@@H](OC(=O)CC(C)C)[C@H](C)O3)[C@H](N(C)C)[C@H]2O)[C@@H](CC=O)C[C@@H](C)[C@@H](O)/C=C/C=C/C[C@@H](C)OC(=O)C[C@H]1OC(C)=O` [JOSAMYCIN], the Activity entry was “inhibitor [(at a rough estimate) 180 % of control]” in series [5] and “inhibitor [(at a rough estimate) 710 % of control]” in series [6].
For `C=CC[C@@H]1/C=C(\C)C[C@H](C)C[C@H](OC)[C@H]2O[C@@](O)(C(=O)C(=O)N3CCCC[C@H]3C(=O)O[C@H](/C(C)=C/[C@@H]3CC[C@@H](O)[C@H](OC)C3)[C@H](C)[C@@H](O)CC1=O)[C@H](C)C[C@@H]2OC` [TACROLIMUS ANHYDROUS], the Activity result in series [7] was “inhibitor [(at a rough estimate) 230 % of control]”.
For the molecule `CC[C@]1(O)C[C@@H]2CN(CCc3c([nH]c4ccccc34)[C@@](C(=O)OC)(c3cc4c(cc3OC)N(C)[C@H]3[C@@](O)(C(=O)OC)[C@H](OC(C)=O)[C@]5(CC)C=CCN6CC[C@]43[C@@H]65)C2)C1` [VINBLASTINE], the Activity entry in series [8] is “substrate [+]”.
